This passage reports IC50 results from ChEMBL document CHEMBL1143763, “Synthesis, in vitro assay, and molecular modeling of new piperidine derivatives having dual inhibitory potency against acetylcholinesterase and Abeta1-42 aggregation for Alzheimer's disease therapeutics” (Bioorg Med Chem, 2007).

Usually IC50 stands for the concentration needed to halve the response being measured. A higher IC50 goes with a need for much substance.

SMILES strings stand for the structures.

In one experiment the target is Cholinesterase (Homo sapiens, UniProt P06276).
Cholinesterase, sequence (P06276 whole entry): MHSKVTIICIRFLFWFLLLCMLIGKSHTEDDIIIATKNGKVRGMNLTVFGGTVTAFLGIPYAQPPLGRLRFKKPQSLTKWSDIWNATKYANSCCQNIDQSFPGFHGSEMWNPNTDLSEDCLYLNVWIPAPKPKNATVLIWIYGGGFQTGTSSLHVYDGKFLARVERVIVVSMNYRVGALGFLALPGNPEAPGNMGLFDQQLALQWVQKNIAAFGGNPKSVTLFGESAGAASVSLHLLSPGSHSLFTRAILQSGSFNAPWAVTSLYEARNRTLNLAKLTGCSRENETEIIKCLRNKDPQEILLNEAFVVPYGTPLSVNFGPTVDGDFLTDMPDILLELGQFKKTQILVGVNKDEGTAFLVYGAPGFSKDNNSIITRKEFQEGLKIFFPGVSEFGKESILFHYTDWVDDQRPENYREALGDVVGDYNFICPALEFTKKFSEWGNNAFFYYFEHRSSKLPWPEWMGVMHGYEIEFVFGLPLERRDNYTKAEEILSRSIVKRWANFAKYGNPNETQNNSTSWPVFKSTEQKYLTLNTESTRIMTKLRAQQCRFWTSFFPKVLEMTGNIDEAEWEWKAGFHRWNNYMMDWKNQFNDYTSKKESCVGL
Description: Inhibition of human BChE by Ellman's method
`O=C(OCCCCN1CCC(OCc2ccccc2)CC1)c1ccc([N+](=O)[O-])cc1` had a 50% inhibitory concentration (IC50) of 5.23 µM.

With `CC(C)(C)c1ccc(C(=O)OCCCCN2CCC(OCc3ccccc3)CC2)cc1`, the concentration for half-maximal inhibition (IC50) turned out to be 15.2 µM.

Take `CC(C)c1ccc(C(=O)OCCCCN2CCC(OCc3ccccc3)CC2)cc1`: 10.8 µM corresponded to half-maximal inhibition (IC50).

In turn, `O=C(OCCCCN1CCC(OCc2ccccc2)CC1)c1cccc(F)c1` had a 50% inhibitory concentration (IC50) of 1.58 µM.

`O=C(Nc1ccc(Cl)cc1)OCCCCN1CCC(OCc2ccccc2)CC1` gave an IC50 of 0.25 µM.

The compound `O=C(Nc1ccc(F)cc1)OCCCCN1CCC(OCc2ccccc2)CC1` had a 50% inhibitory concentration (IC50) of 0.78 µM.

As for `O=C(OCCCCN1CCC(OCc2ccccc2)CC1)c1ccccc1`, the 50% inhibitory concentration (IC50) worked out at 1.89 µM.

On to `O=C(OCCCCN1CCC(OC(c2ccccc2)c2ccccc2)CC1)c1ccccc1`, for which the IC50 stood at 31.5 µM.

`O=C(OCCCCN1CCC(OC(c2ccccc2)c2ccccc2)CC1)c1ccc(Cl)cc1` yielded a half-maximal inhibitory concentration (IC50) of 38.4 µM.

`O=C(OCCCCN1CCC(OC(c2ccccc2)c2ccccc2)CC1)c1ccc(F)cc1` had an IC50 of 22.2 µM.

Compound `CC(C)(C)c1ccc(C(=O)OCCCCN2CCC(OC(c3ccccc3)c3ccccc3)CC2)cc1` had an IC50 of 78.9 µM.

`CC(C)c1ccc(C(=O)OCCCCN2CCC(OC(c3ccccc3)c3ccccc3)CC2)cc1`: the IC50 worked out at 23.2 µM.

For `O=C(OCCCCN1CCC(OC(c2ccccc2)c2ccccc2)CC1)c1cccc(Cl)c1`, inhibition was half-maximal at 57.9 µM (IC50).

The compound `O=C(OCCCCN1CCC(OC(c2ccccc2)c2ccccc2)CC1)c1cccc(F)c1` gave a half-maximal inhibitory concentration (IC50) of 31.5 µM.

Turning to `O=C(OCCCCN1CCC(OCc2ccccc2)CC1)c1ccc(F)cc1`, 0.56 µM corresponded to half-maximal inhibition (IC50).

`O=C(Nc1ccc(Cl)cc1)OCCCCN1CCC(OC(c2ccccc2)c2ccccc2)CC1` returned an IC50 of 13.7 µM.

On to `O=C(OCCCCN1CCC(OCc2ccccc2)CC1)c1ccc(Cl)cc1`, for which the concentration for half-maximal inhibition (IC50) stood at 3.52 µM.

`O=C(OCCCCN1CCC(OCc2ccccc2)CC1)c1cccc(Cl)c1`: the IC50 worked out at 1.35 µM.

For `O=C(OCCCCN1CCC(OC(c2ccccc2)c2ccccc2)CC1)c1ccc([N+](=O)[O-])cc1`, the IC50 amounted to 26.8 µM.

On to `O=C(Nc1ccc(F)cc1)OCCCCN1CCC(OC(c2ccccc2)c2ccccc2)CC1`, for which it took 15.7 µM to reach half-maximal inhibition (IC50).

The target in the next experiment is Acetylcholinesterase (Electrophorus electricus, UniProt O42275).
Acetylcholinesterase, sequence (O42275 whole entry): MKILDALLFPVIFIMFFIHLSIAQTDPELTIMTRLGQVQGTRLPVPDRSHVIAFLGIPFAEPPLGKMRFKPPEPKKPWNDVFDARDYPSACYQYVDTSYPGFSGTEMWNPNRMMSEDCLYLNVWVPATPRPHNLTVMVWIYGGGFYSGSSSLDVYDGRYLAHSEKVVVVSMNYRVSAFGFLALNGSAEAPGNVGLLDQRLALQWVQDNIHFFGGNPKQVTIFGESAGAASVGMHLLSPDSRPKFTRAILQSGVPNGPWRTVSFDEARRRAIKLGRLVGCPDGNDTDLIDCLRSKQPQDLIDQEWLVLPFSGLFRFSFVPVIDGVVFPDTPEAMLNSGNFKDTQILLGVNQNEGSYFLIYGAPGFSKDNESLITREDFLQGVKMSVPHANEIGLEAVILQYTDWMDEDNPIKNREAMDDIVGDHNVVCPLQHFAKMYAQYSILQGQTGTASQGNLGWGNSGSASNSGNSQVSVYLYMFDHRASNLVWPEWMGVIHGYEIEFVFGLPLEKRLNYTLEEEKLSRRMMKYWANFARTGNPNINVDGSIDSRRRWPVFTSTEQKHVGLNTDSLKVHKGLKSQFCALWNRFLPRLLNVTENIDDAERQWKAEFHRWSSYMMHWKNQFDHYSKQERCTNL
Description: Inhibition of Electrophorus electricus AChE by Ellman's method
With `O=C(OCCCCN1CCC(OC(c2ccccc2)c2ccccc2)CC1)c1ccc(Cl)cc1`, the IC50 is 0.31 µM.

`O=C(OCCCCN1CCC(OC(c2ccccc2)c2ccccc2)CC1)c1cccc(F)c1` had a half-inhibitory concentration (IC50) of 7.72 µM.
